This is an account of results in patent US10919914B2, “Heterocyclic compounds and uses thereof” (Infinity Pharmaceuticals, Inc., priority 2016, dated 2021).

One test addresses PI3K δ (Homo sapiens (Human), UniProt O00329). Nature of the test: PI3-Kinase HTRF assay. In kind it is biochemical. From the text:
A PI3-Kinase HTRF® assay kit (cat No. 33-016) purchased from Millipore Corporation is used to screen compounds provided herein. This assay uses specific, high affinity binding of the GRP1 pleckstrin homology (PH) domain to PIP3, the product of a Class 1A or 1B PI3 Kinase acting on its physiological substrate PIP2. During the detection phase of the assay, a complex is generated between the GST-tagged PH domain and biotinylated short chain PIP3. The biotinylated PIP3 and the GST-tagged PH domain recruited fluorophores (Streptavidin-Allophycocyanin and Europium-labeled anti-GST respectively) to form the fluorescence resonance energy transfer (FRET) architecture, generating a stable time-resolved FRET signal. The FRET complex is disrupted in a competitive manner by non-biotinylated PIP3, a product formed in the PI3 Kinase assay.
PI3 Kinase α, γ or δ activity is assayed using the PI3 Kinase HTRF® assay kit (catalogue No. 33-016) purchased from Millipore Corporation. Purified recombinant PI3Kα (catalogue No. 14-602-K), PI3Kβ (catalogue No. 14-603-K), PI3Kγ (catalogue No. 14-558-K), and PI3Kδ (catalogue No. 14-604-K) are obtained from Millipore Corporation. Purified recombinant PI3K enzyme is used to catalyze the phosphorylation of phosphatidylinositol 4,5-bisphosphate (PIP2 at 10 μM) to phosphatidylinositol 3,4,5-trisphosphate (PIP3) in the presence of 10 μM ATP. The assay is carried out in 384-well format and detected using a Perkin Elmer EnVision Xcite Multilabel Reader. Emission ratios are converted into percent inhibitions and imported into GraphPad Prism software. […] IC50 values are determined using a nonlinear regression model available in GraphPad Prism 5.
Other commercial kits or systems for assaying PI3-K activities are available. The commercially available kits or systems can be used to screen for inhibitors and/or agonists of PI3-Ks including, but not limited to, PI 3-Kinase α, β, δ, and γ. […] The plate is sealed, incubated for 1 hour at room temperature, and then read on an appropriate plate reader. Data is analyzed and IC50s are generated using GraphPad Prism 5.

The target in the next test is PI3K γ (Homo sapiens (Human), UniProt P48736). Nature of the test: PI3-Kinase HTRF assay. In kind it is biochemical. From the text:
The biotinylated PIP3 and the GST-tagged PH domain recruited fluorophores (Streptavidin-Allophycocyanin and Europium-labeled anti-GST respectively) to form the fluorescence resonance energy transfer (FRET) architecture, generating a stable time-resolved FRET signal.
Other commercial kits or systems for assaying PI3-K activities are available. […] An exemplary system is PI 3-Kinase (human) HTRF™ Assay from Upstate. […] Briefly, the assay is a time resolved FRET assay that indirectly measures PIP3 product formed by the activity of a PI3-K. The kinase reaction is performed in a microtiter plate (e.g., a 384 well microtiter plate). […] The plate is sealed and incubated for 15 minutes at room temperature. […] The plate is sealed and incubated for 1 hour at room temperature. […] The plate is sealed, incubated for 1 hour at room temperature, and then read on an appropriate plate reader. Data is analyzed and IC50s are generated using GraphPad Prism 5.

Test [1] concerns PI3K/Akt/mTOR signaling (phosphorylation of Akt-S473 and S6). Nature of the test: Kinase signaling in blood (phosflow). In kind it is cell-based. Conditions: anti-CD3 stimulated splenocytes or peripheral blood mononuclear cells. How it is done: PI3K/Akt/mTOR signaling is measured in blood cells using the phosflow method (Methods Enzymol. (2007) 434:131-54). This method is by nature a single cell assay so that cellular heterogeneity can be detected rather than population averages. This allows concurrent distinction of signaling states in different populations defined by other markers. Phosflow is also highly quantitative. To test the effects of one or more compounds provided herein, unfractionated splenocytes, or peripheral blood mononuclear cells are stimulated with anti-CD3 to initiate T-cell receptor signaling. The cells are then fixed and stained for surface markers and intracellular phosphoproteins. […]
Similarly, aliquots of whole blood are incubated for 15 minutes with vehicle (e.g., 0.1% DMSO) or kinase inhibitors at various concentrations, before addition of stimuli to crosslink the T cell receptor (TCR) (anti-CD3 with secondary antibody) or the B cell receptor (BCR) using anti-kappa light chain antibody (Fab′2 fragments). […] The level of phosphorylation of kinase substrates such as Akt and S6 are then measured by incubating the fixed cells with labeled antibodies specific to the phosphorylated isoforms of these proteins. The population of cells are then analyzed by flow cytometry.

pIC50: −log10 of the molar value. Some results are limits rather than exact numbers.

PI3K δ, sequence (O00329 whole entry, the tested form may be a part): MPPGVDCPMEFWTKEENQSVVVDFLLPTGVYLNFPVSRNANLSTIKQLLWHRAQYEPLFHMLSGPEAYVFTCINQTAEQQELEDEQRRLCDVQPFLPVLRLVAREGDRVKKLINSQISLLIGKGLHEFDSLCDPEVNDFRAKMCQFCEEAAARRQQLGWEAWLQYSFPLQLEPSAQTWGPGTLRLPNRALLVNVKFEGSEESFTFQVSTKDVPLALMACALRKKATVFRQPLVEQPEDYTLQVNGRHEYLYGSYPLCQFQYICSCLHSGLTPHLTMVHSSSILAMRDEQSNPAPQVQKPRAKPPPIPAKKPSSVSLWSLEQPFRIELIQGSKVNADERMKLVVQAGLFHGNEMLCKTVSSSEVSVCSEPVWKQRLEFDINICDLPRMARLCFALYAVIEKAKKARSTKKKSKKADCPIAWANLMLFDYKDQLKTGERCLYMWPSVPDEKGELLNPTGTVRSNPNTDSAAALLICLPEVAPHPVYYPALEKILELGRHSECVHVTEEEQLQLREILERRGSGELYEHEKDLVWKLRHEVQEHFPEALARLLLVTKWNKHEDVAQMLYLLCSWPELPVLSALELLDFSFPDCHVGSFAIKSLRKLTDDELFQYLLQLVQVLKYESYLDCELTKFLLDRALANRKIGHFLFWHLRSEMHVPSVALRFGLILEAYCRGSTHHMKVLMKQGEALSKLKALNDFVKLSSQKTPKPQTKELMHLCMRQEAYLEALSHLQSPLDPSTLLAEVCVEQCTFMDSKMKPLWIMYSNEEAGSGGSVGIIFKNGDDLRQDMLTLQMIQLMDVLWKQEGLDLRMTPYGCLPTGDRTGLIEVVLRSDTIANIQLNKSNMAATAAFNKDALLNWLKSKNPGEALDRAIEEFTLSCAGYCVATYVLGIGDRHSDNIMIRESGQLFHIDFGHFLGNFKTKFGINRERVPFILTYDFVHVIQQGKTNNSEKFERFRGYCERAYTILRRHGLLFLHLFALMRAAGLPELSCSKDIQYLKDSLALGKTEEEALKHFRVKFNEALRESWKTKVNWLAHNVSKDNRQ
PI3K δ, sequence (P27986 whole entry partner, the tested form may be a part): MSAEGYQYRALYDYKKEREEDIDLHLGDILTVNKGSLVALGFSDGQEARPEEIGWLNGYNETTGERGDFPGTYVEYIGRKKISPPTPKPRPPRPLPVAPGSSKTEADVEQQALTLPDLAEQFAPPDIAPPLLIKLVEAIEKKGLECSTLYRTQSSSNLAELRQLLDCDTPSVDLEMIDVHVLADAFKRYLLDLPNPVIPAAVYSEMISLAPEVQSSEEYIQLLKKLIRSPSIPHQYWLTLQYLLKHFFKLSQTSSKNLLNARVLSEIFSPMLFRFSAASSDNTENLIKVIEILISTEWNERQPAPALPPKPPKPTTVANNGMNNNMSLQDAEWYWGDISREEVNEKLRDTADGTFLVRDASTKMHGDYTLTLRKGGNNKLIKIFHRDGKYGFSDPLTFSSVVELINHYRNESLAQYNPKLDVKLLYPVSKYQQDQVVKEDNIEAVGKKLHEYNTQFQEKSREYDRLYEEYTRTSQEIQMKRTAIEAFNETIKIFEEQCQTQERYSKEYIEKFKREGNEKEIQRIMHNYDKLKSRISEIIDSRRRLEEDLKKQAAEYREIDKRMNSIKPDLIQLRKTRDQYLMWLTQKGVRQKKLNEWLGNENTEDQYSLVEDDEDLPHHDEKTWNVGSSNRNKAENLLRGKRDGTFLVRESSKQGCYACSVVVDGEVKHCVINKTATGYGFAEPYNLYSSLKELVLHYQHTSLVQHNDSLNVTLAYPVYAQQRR
PI3K γ, sequence (P48736 whole entry, the tested form may be a part): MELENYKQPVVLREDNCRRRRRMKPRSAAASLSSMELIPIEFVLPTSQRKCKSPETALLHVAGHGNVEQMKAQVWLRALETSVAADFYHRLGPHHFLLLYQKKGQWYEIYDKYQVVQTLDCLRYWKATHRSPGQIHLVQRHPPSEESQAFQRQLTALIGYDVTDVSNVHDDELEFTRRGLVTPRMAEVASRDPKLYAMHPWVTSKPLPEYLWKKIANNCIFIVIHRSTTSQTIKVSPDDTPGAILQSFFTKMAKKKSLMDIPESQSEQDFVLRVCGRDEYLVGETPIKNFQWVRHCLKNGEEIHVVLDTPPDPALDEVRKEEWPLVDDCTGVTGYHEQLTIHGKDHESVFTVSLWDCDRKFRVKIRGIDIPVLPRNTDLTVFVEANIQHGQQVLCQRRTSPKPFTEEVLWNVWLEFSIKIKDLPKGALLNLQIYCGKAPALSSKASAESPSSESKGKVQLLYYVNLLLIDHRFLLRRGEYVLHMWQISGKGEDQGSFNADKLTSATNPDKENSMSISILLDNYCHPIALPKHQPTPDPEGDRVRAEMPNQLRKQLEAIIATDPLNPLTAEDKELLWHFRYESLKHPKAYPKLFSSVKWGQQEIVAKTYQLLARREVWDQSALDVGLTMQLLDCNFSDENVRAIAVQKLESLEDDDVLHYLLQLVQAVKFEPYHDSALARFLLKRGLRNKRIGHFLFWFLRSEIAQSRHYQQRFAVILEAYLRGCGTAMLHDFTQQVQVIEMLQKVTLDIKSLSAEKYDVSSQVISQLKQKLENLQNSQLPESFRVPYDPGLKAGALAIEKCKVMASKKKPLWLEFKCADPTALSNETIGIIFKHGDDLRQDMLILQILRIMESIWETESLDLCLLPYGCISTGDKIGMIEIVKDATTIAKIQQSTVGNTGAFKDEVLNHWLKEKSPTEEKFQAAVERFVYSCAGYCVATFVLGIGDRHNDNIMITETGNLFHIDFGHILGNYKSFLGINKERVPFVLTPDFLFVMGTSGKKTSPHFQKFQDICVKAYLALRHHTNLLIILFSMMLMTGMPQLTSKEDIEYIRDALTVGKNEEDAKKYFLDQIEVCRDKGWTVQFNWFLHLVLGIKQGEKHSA

With `C[C@H](NC(=O)c1c(N)nn2ccccc12)c1cc2cccc(C#Cc3cnn(C)c3)c2c(=O)n1-c1ccccc1` [Compound 1], the pIC50 at PI3K δ is less than 5.00; against PI3K γ, 6.30 to 7.00. Further, the “PI3K δ/PI3K γ IC50 (selectivity)” value at PI3K γ (δ/γ IC50 selectivity) is listed as “Y (Y = 50 to <850)”.

Compound `C[C@H](NC(=O)c1c(N)nn2ccccc12)c1cc2cccc(Cl)c2c(=O)n1-c1ccccc1` [Compound 31] had a pIC50 at PI3K δ of 5.30 to 6.00.

Take `CO[C@H]1C[C@@H]2CC[C@@H](C)[C@@](O)(O2)C(=O)C(=O)N2CCCC[C@H]2C(=O)O[C@H]([C@H](C)C[C@@H]2CC[C@@H](O)[C@H](OC)C2)CC(=O)[C@H](C)/C=C(\C)[C@@H](O)[C@@H](OC)C(=O)[C@H](C)C[C@H](C)/C=C/C=C/C=C/1C` [rapamycin]: in test [1], the “Akt phosphorylation (Akt-S473)” value is recorded as “enhances” and the S6 phosphorylation result is given as “inhibits”.

As for `C[C@H](NC(=O)c1c(N)ncc2ccccc12)c1cc2cccc(Cl)c2c(=O)n1-c1ccccc1` [Compound 3626], the pIC50 is less than 5.00 against PI3K δ and less than 5.30 at PI3K γ.
